Test results taken from PMC7495481, “Sequence specificity analysis of the SETD2 protein lysine methyltransferase and discovery of a SETD2 super-substrate” (Communications Biology, 2020).
Values joined by “and” are separate entries in the source; they are usually repeats but may differ in a detail not shown here. Equal values may be shown once.

What follows are sequences tested against T1, SETD2 (Homo sapiens, UniProt Q9BYW2) (assay: Peptide SPOT array target lysine methylation of selected non-histone peptides (Fig. 3b)). Conditions: Exp1–Exp3, 3–6 µM SETD2, 0.76 µM AdoMet, 60 min, pH 9.
T1 construct: SETD2 catalytic SET domain (amino acids 1347–1711, UniProt No: Q9BYW2); made in house; host or cells: E. coli
T1 sequence (Q9BYW2 1347-1711): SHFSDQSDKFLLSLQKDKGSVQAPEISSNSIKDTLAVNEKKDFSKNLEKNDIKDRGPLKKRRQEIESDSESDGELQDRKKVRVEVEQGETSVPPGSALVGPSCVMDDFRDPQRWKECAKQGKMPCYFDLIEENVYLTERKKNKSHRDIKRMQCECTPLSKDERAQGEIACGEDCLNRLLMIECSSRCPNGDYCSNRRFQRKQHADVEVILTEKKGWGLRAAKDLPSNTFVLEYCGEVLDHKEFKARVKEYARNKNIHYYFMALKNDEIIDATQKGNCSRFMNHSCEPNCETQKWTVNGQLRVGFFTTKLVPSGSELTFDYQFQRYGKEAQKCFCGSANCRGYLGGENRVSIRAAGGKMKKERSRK
Assay type: biochemical
Description: However, we could identify 166 possible targets, which contain partial matches to the substrate specificity profile. The possible methylation of these 166 putative substrates was investigated at the peptide level. For this, fifteen amino acid long peptides containing the sequence of the non-histone targets surrounding the predicted target lysine were synthesized on a membrane. The H3K36 (29–43) peptide (spots A1, I9), the super-substrate peptide (spots A3, I11) and the corresponding lysine to alanine mutation peptides (spot A2, I10, and A4, I12) were included as positive and negative controls (Fig. 3a, Supplementary Fig. 4 and Supplementary Table 2). The methylation reactions and the detection of the methylation signals were performed in duplicates as described above. We observed that all of the investigated peptides were more weakly methylated than the super-substrate peptide. […] In the next step, 20 of the peptides were selected for further investigation based on the methylation intensity and the known functions of the proteins to confirm the methylation at the predicted target site. The peptides were synthesized on another membrane, now including the target lysine to alanine mutation control peptides in each case. The methylation reactions and the detection of the signal were conducted as described above (Fig. 3b, Supplementary Fig. 5 and Supplementary Table 3).
Fig. 3 Identification of non-histone substrates of SETD2. a Candidate non-histone peptide substrates were identified in the human proteome based on the SETD2 super-substrate specificity profile. The peptides were synthesized on a peptide SPOT array (Supplementary Table 2) and methylated by SETD2. As controls, the H3K36, H3K36A, ssK36 and ssK36A peptides were included on spots A1–A4 and I9–I12. The autoradiography image is an example of the obtained results. […] The quantification of the data of two experiments is shown in Supplementary Fig. 4. b Analysis of target lysine methylation of selected non-histone substrate peptides. Peptide SPOT arrays were synthesized containing the non-histone peptide substrates identified in panel A in addition to the lysine to alanine mutations presented on the array as every second spot (Supplementary Table 3). As controls, the H3K36, H3K36A, ssK36, and ssK36A mutant peptides were included on spot A1–A4 and C5–C8. The autoradiography image is an example of the obtained results. The quantification of the data of three experiments is shown in Supplementary Fig. 5. Peptides selected for furhter analysis are highlighted by blue circles. c Protein methylation of FBN1 and confirmation of the target lysine methylation. Both wild type (WT) and mutant (K666R) FBN1 were purified and equal amounts were methylated by SETD2 (2 µM). […] The size of FBN1 is indicated by an asterisk.
Peptide arrays containing fifteen amino acid long peptides were synthesized using the SPOT synthesis method[48] with an Autospot peptide array synthesizer (Intavis AG, Köln, Germany). After synthesis, the obtained membranes were pre-incubated in methylation buffer (20 mM Tris/HCl pH 9, 0.01% Triton X-100, 10 mM DTT, 1.5 mM MgCl2) for 5 min on a shaker. Thereafter, the membranes were incubated in methylation buffer supplemented with 0.76 µM radioactively labeled AdoMet (PerkinElmer) and 3–6 µM SETD2 enzyme for 60 min on a shaker. After methylation, the membranes were washed 5 times for 5 min in wash buffer (100 mM NH4HCO3, 1% SDS) and incubated in amplify NAMP100V (GE Healthcare) for 5 min. This was followed by the exposure of the membranes to a hyperfilm^TM high performance autoradiography (GE Healthcare) film at −80 °C in the dark. The films were developed with an Optimax Typ TR machine after different exposue times. For quantification the signal intensities were measured with the Phoretix^TM software and analyzed with Microsoft Excel.

| Sequence | Relative methylation signal, Average |
| --- | --- |
| KDVIGAFKKVFACCS [O2T11, Olfactory receptor 2T11 peptide, target lysine 299] | 0.408 |
| LHNRGALKLTTGKCV [SIA8D, CMP-N-acetylneuraminate-poly-alpha-2,8-sialyltransferase peptide, target lysine 350] | 0.4366 |
| RRGIGYLKLICFLIP [ANKAR, Ankyrin and armadillo repeat-containing protein peptide, target lysine 317] | 0.4211 |
| STCYGGIKKGVCVRP [FBN2, Fibrillin-2 peptide, target lysine 711] | 0.6873 |
| APRFGGVARPNRYRP [DS K to A, super-substrate K36A peptide, negative control] | 0.1136 and 0.1005 |
| STCYGGIAKGVCVRP [FBN2 K to A, target lysine to alanine control] | 0.3693 |
| YGPFGYIKNPYNIFD [CAC1G, Voltage-dependent T-type calcium channel subunit alpha-1G peptide, target lysine 804] | 0.9453 |
| CRKLGGVAKSATFRS [TPD55 K to A, target lysine to alanine control] | 0.6652 |
| LWKIGFFARPLKKKM [ITA1 K to A, target lysine to alanine control] | 0.403 |
| DDLYGAIKKLCCVQS [PIWL2, Piwi-like protein 2 peptide, target lysine 685] | 0.4271 |
| KRIYGGFKSTAGKHP [HABP2] | 0.2413 |

Second part, the sequence after the results:

| Relative methylation signal, Average | Sequence |
| --- | --- |
| 0.398 | GHPFGYLKASTALNC [INT6, Integrator complex subunit 6 peptide, target lysine 369] |
| 0.3311 | EMSIGAIKIALEISL [HMCN1, Hemicentin-1 peptide, target lysine 127] |
| 0.5433 | ATFLGYFKSGLKYKK [GELS, Gelsolin peptide, target lysine 162] |
| 0.7696 | TPPLGGYKVTAKCFG [HDAC9, Histone deacetylase 9 peptide, target lysine 927] |
| 0.2965 | LHNRGALALTTGKCV [SIA8D K to A, target lysine to alanine control] |
| 0.2902 | AGARGYLKTSLCVLG [DYSF, Dysferlin peptide, target lysine 338] |
| 0.4627 | TPPLGGYAVTAKCFG [HDAC9 K to A, target lysine to alanine control] |
| 0.3763 | KAPRGFLARVFKRKK [CENPW K to A, target lysine to alanine control] |
| 0.3265 | DDLYGAIAKLCCVQS [PIWL2 K to A, target lysine to alanine control] |
| 0.2106 | GHPFGYLAASTALNC [INT6 K to A, target lysine to alanine control] |
| 0.2642 | KDVIGAFAKVFACCS [O2T11 K to A, target lysine to alanine control] |
| 0.2279 | STCYGGYARGQCIKP [FBN1 K to A, target lysine to alanine control] |
| 0.2122 | KRIYGGFASTAGKHP [HABP2 K to A, target lysine to alanine control] |
| 0.598 | LICIGALKKLCNHPC [RA54B, DNA repair and recombination protein RAD54B peptide, target lysine 589] |
| 0.01828 | AGARGYLATSLCVLG [DYSF K to A, target lysine to alanine control] |
| 0.4571 | GAIIGFIAVGYKKLF [ATAT K to A, target lysine to alanine control] |
